# Measurements reported in patent EP0559700B1, “NOVEL PILOCARPINE DERIVATIVES AND PROCESS FOR THEIR PREPARATION” (Santen Oy, priority 1990, dated 1992).
# Read-outs that look alike come from different tables or passages of the source.
# Key:
# [1] = Enzyme hydrolysis in plasma/buffer pH 7.4 mixture (80%-20%); format: in vitro ADME; settings: for half-life: 80% plasma/buffer
# Description: The half-times of enzyme hydrolysis of the novel bispilocarpates according to the invention and of known pilocarpic acid diesters were determined in a plasma/buffer pH 7.4-mixture (80%-20%) at 37°C. The degradation constants (k) for the compounds tested and determined from the plot showing the logarithm of remaining diester as a function of time and the half-lives T½ are shown in the Table II below. From the results it may be seen that in […] the stable test compound degrades under the influence of an enzyme (esterase) to a O,O'-dihydrogen bispilocarpate intermediate, which spontaneously degrades at pH 7.40 to pilocarpine. Consequently the effect of the bispilocarpate intermediate on the rate of formation of pilocarpine is very significant. The formation of pilocarpine was almost complete irrespective of the epimerization possibility of the intermediate. The amount of isopilocarpine formed varied from 0 to 10%, as also the pilocarpine formed epimerized, if the duration of hydrolysis was very long.
# [2] = Stability of the compounds: buffer hydrolysis (half-times, shelf-life); format: physicochemical
# Description: The stability of the test compounds were tested with buffer hydrolyses. The ionic strength (µ) of the buffers was 0.5, the pH-values used 4.2, 6.0, 7.4 and 9.0 and the temperatures used 37°C, 50 °C, 60 °C and 70 °C.
# The half-times T½ calculated on basis of the degradation constant k obtained for each studied compound (T½=0.693/k; k = 2.303 x kk, wherein kk is the angular coefficient of the plot which illustrates the logarithm of the remaining ester as a function of time) in a buffer solution of said pH, are indicated in the Table I below, which values refer to half-times at 37°C.
# The storage stability of the derivatives under different storage conditions may be estimated by determining the degradation constants at different temperatures and calculating the degradation constant k at the desired temperature from the equation of the plot corresponding to the Arrhenius equation (1), wherein log k is given as a function of [1/T]. Log k = Log A -(Ea)/(2.303R)x(1)/(T) [formula]
# From the degradation constant (k) obtained at the desired temperature the shelf-life-time t10% (t10% = 0.104/k) which indicates the time during which 10% of the drug has degraded may be calculated. By way of example it may be mentioned that the t10%-time of O,O'-dipropionyl (1,4-xylylene) bispilocarpate at 4 °C is almost 500 days.
# [3] = Corneal permeability in a diffusion chamber; format: in vitro ADME, rabbit
# Text: The corneal permeability of pilocarpine hydrochloride and its most promising prodrug derivatives as evaluated from the tests described above were studied in a diffusion chamber, wherein the migration of the compound from the delivering phase (epithelium side) thorugh the cornea to the acceptor side (endothelium side) of the diffusion chamber. In the study, rabbit eye cornea was used. From the samples taken from the acceptor side of the diffusion chamber, both the concentration of the prodrug and the liberated drug were determined in the acceptor phase with HPLC. Thus the rate of degradation of the prodrug in the cornea was determined. The permeability coefficients (Papp, cm/s) calculated from the permeability rate (μmol/min), their […] deviations (RSD) and the number of tests, are given in the Table II below.
# [4] = pKa-value determination by titration in a water-ethanol mixture (50%-50%); format: physicochemical; settings: water-ethanol 50:50; titration in water-ethanol mixture (50%-50%)
# [5] = Lipophilicity: partition coefficient (octanol-buffer) and capacity factor by RP-HPLC; format: physicochemical; settings: for chromatographic logP: reverse phase HPLC, 22°C, read-out: Capacity factor (22°C) k' (converted)
# Text: The lipophilicity of the compounds were studied by determining the partition coefficients (P) of the compounds at a pH of 7.40. The measurements were made either in an octanol-buffer mixture by determining the concentration of the compound to be studied in the buffer phase by HPLC. The partition coefficients of the very lipophilic compounds were, however, determined by reverse phase (RP) liquid chromatography (HPLC) from the retention time (Beckmann 116 pump and 166 UV detector; Marathon autom. sample feeder). […] From the results it can be seen that the compounds of the invention are considerably more lipophilic than the pilocarpine.
# [6] = as above; format: physicochemical; settings: pH 5.0
# [7] = plasma/buffer pH 7.4 (80%-20%), 37°C, read-out: half-times (T½) in plasma (80%), 37°C
# [8] = plasma/buffer pH 7.4 (80%-20%), 37°C
# [9] = rabbit eye cornea, diffusion chamber, epithelium side to endothelium side, read-out: Permeability coefficient Papp
# [10] = buffer pH 6.00, ionic strength 0.5, 37°C, read-out: Half-times in buffers at 37°C, T½, pH 6.00 (converted)
# [11] = buffer pH 9.00, ionic strength 0.5, 37°C, read-out: Half-times in buffers at 37°C, T½, pH 9.00 (converted)
# [12] = pH 4.2, buffer pH 4.20, ionic strength 0.5, 37°C, read-out: Half-times in buffers at 37°C, T½, pH 4.20 (converted)
# [13] = pH 7.4, buffer pH 7.40, ionic strength 0.5, 37°C, read-out: Half-times in buffers at 37°C, T½, pH 7.40 (converted)
# [14] = determined from the equation log k'= 0.182 Log P - 0.4086 (RP-HPLC retention)
SMILES,pKa [4],chromatographic logP ([5]; rp-hplc),"half-life [1, 7]","Degradation coefficient (k) in plasma (80%), 37°C [1, 8]","Papp [3, 9]","half-life [2, 10]","half-life [2, 11]","half-life [2, 12]","half-life [2, 13]",further results
"CC[C@H](C(=O)OCc1ccc(COC(=O)[C@@H](CC)[C@H](COC(C)=O)Cc2cncn2C)cc1)[C@H](COC(C)=O)Cc1cncn1C [Example 9, O,O'-Diacetyl (1,4-xylylene) bispilocarpate]",6.03,0.146,–,–,–,–,–,–,–,"half-life ([1]; pH 7.4): 9 min; Degradation coefficient (k) in plasma (80%), 37°C ([1]; pH 7.4): 0.0737 min⁻¹; half-life ([2]; buffer, pH 4.2): 165 days; half-life ([2]; buffer, pH 6): 48.4 days; half-life ([2]; buffer, pH 7.4): 11.4 days; half-life ([2]; buffer, pH 9): 1.42 days; Papp ([3]; rabbit): 9.3 ×10⁻⁶ cm/s; Partition coefficient log P ([5]; pH 7.4): 3.0432^1; Capacity factor (22°C) k' ([5]; rp-hplc): 1.3987"
"CC[C@H](C(=O)OCc1ccccc1)[C@H](COC(=O)c1cccc(Cl)c1)Cc1cncn1C [3-chloro-benzoyl, benzyl, reference compound]",–,–,22 min,0.03132 min⁻¹,7.2 ×10⁻⁶ cm/s,–,–,–,–,–
"CCC(=O)OC[C@H](Cc1cncn1C)[C@H](CC)C(=O)OCc1ccccc1 [propionyl, benzyl, reference compound]",–,–,6 min,0.108 min⁻¹,14.3 ×10⁻⁶ cm/s,222 days,3.92 days,90.8 days,31.2 days,–
"CC[C@H](C(=O)OCc1ccccc1)[C@H](COC(C)=O)Cc1cncn1C [acetyl, benzyl, reference compound]",–,–,16 min,0.04353 min⁻¹,11.7 ×10⁻⁶ cm/s,144 days,3.29 days,320 days,22.8 days,–
"CC[C@H](C(=O)OCCCCCOC(=O)[C@@H](CC)[C@H](COC(=O)C1CC1)Cc1cncn1C)[C@H](COC(=O)C1CC1)Cc1cncn1C [Example 21, O,O'-Dicyclopropylcarbonyl (1,5-pentylene) bispilocarpate]",–,–,13 min,–,–,–,–,–,–,"half-life ([2]; buffer, pH 4.2, 50 °C, pH 4.20, read-out: Chemical hydrolysis t½, pH 4.20 (converted)): 193 days; half-life ([2]; buffer, pH 7.4, 50 °C, pH 7.40, read-out: Chemical hydrolysis t½, pH 7.40 (converted)): 23 days; half-life ([2]; buffer, 50 °C, pH 6.00, read-out: Chemical hydrolysis t½, pH 6.00 (converted)): 98.7 days; logD [6]: 0.401"
"CCC(=O)OC[C@H](Cc1cncn1C)[C@H](CC)C(=O)OCc1ccc(COC(=O)[C@@H](CC)[C@H](COC(=O)CC)Cc2cncn2C)cc1 [Example 10, O,O'-Dipropionyl (1,4-xylylene) bispilocarpate]",5.8,0.362,6 min,0.1184 min⁻¹,30.5 ×10⁻⁶ cm/s,50.6 days,1.96 days,91.8 days,16.7 days,"shelf-life-time t10% (time during which 10% of the drug has degraded) ([2]; at 4 °C, calculated from the Arrhenius plot): ~500 days"
"CCCCC(=O)OC[C@H](Cc1cncn1C)[C@H](CC)C(=O)OCc1ccc(COC(=O)[C@@H](CC)[C@H](COC(=O)CCCC)Cc2cncn2C)cc1 [Example 12, O,O'-Divaleryl (1,4-xylylene) bispilocarpate]",6,0.868,12 min,0.05734 min⁻¹,18.2 ×10⁻⁶ cm/s,–,0.292 days,–,–,"Partition coefficient log P [5, 14]: 7.0165^2"
"CCCCC(=O)OC[C@H](Cc1cncn1C)[C@H](CC)C(=O)OCc1ccccc1 [valeryl, benzyl, reference compound]",–,–,9 min,0.07876 min⁻¹,11.5 ×10⁻⁶ cm/s,–,12.6 days,356 days,48.7 days,–
"CCCC(=O)OC[C@H](Cc1cncn1C)[C@H](CC)C(=O)OCc1ccc(COC(=O)[C@@H](CC)[C@H](COC(=O)CCC)Cc2cncn2C)cc1 [Example 11, O,O'-Dibutyryl (1,4-xylylene) bispilocarpate]",6,0.603,11 min,0.06149 min⁻¹,21.5 ×10⁻⁶ cm/s,46.4 days,5.71 days,250 days,7.38 days,"Partition coefficient log P [5, 14]: 5.5604^2"
"CC[C@H](C(=O)OCc1ccccc1)[C@H](COC(=O)c1ccccc1)Cc1cncn1C [benzoyl, benzyl, reference compound]",–,–,18 min,0.038 min⁻¹,8.7 ×10⁻⁶ cm/s,203 days,4.62 days,444 days,85.1 days,–
"CC[C@H](C(=O)OCc1ccc(COC(=O)[C@@H](CC)[C@H](COC(=O)C2CC2)Cc2cncn2C)cc1)[C@H](COC(=O)C1CC1)Cc1cncn1C [Example 13, O,O'-Dicyclopronylcarbonyl (1,4-xylylene) bispilocarpate]",6,0.392,14 min,0.04998 min⁻¹,15.8 ×10⁻⁶ cm/s,352 days,14.1 days,2640 days,148 days,"Partition coefficient log P ([5]; determined with an octanol-buffer-mixture, pH 7.40, 22 °C): 4.2015^1"
"CC[C@H](C(=O)OCc1ccc(COC(=O)[C@@H](CC)[C@H](COC(=O)c2ccccc2)Cc2cncn2C)cc1)[C@H](COC(=O)c1ccccc1)Cc1cncn1C [Example 14, O,O'-Dibenzoyl (1,4-xylylene) bispilocarpate]",5.8,0.773,94 min,0.00737 min⁻¹,–,–,0.333 days,–,–,"Partition coefficient log P [5, 14]: 6.4929^2"
